Assay results as given in patent US10526347B2, “3-(3H-imidazo[4,5-B]pyridin-2-yl)-1H-pyrazolo[3,4-B]pyridine and therapeutic uses thereof” (Samumed, LLC, priority 2014, dated 2020).

These molecules were tested on Wnt activity (SW480 colon carcinoma cells stably expressing the Sp5-Luc reporter gene) (assay: Sp5-Luc reporter gene screening assay for Wnt activity). Conditions: Homo sapiens.
Assay type: cell-based
Text: The screening assay for Wnt activity is described as follows. Reporter cell lines can be generated by stably transducing cancer cell lines (e.g., colon cancer) or primary cells (e.g., IEC-6 intestinal cells) with a lentiviral construct that includes a Wnt-responsive promoter driving expression of the firefly luciferase gene.
SW480 colon carcinoma cells were transduced with a lentiviral vector expressing luciferase with a human Sp5 promoter consisting of a sequence of eight TCF/LEF binding sites. SW480 cells stably expressing the Sp5-Luc reporter gene and a hygromycin resistance gene were selected by treatment with 150 μg/ml of hygromycin for 7 days. These stably transduced SW480 cells were expanded in cell culture and used for all further screening activities. For Sp5-Luc reporter gene assays, the cells were plated at 10,000 cells/well in 96-well plates with growth medium containing 10% fetal calf serum and incubated overnight at 37° C. and 5% CO2. Each compound was dissolved in DMSO as a 10 mM stock in standard j-vials and used to prepare compound source plates in dose-response format with 3-fold serial dilutions and a 10 mM top concentration. Compound transfer from serially diluted source plates to assay plates containing the cells was accomplished using a pintool (Multimek 96, Beckman equipped with V&P Scientific FP1S50H pins) based liquid handling protocol. This protocol used a slotted pin to transfer 50 nl of compound from a source plate well to an assay plate well containing 50 μl of cells in growth medium. […] Control wells received 50 nl of DMSO treatment for normalization and calculating IC50 values. The treated cells were incubated at 37° C. and 5% CO2 for an additional forty-two hours. Following incubation, the growth medium was removed and 50 μl of BrightGlo luminescence reagent (Promega) was added to each well of the 96-well assay plates. The plates were placed on an orbital shaker for 5 min and then luminescence was quantified on the Victor3 (Perkin Elmer) plate reader. Readings were normalized to DMSO only treated cells, and normalized activities were utilized for IC50 calculations using the dose-response log (inhibitor) vs. response -variable slope (four parameters) nonlinear regression feature available in GraphPad Prism 5.0 or 6.0.
For `CN1CCN(c2ccnc3[nH]c(-c4n[nH]c5ncc(-c6cncc(NC(=O)C7CCCC7)c6)cc45)nc23)CC1` [Compound 204, N-(5-(3-(7-(4-Methylpiperazin-1-yl)-3H-imidazo[4,5-b]pyridin-2-yl)-1H-pyrazolo[3,4-b]pyridin-5-yl)pyridin-3-yl)cyclopentanecarboxamide], the IC50 was 312 nM.
For `NC1CN(c2cncc(-c3cnc4[nH]nc(-c5nc6c(-c7cccc(F)c7)ccnc6[nH]5)c4c3)n2)C1` [Compound 914, 1-(6-(3-(7-(3-Fluorophenyl)-3H-imidazo[4,5-b]pyridin-2-yl)-1H-pyrazolo [3,4-b]pyridin-5-yl)pyrazin-2-yl)azetidin-3-amine], the IC50 was 1020 nM.
Molecule `O=C(CC1CCCCC1)Nc1cncc(-c2cnc3[nH]nc(-c4nc5c(-c6cccc(F)c6)ccnc5[nH]4)c3c2)c1` [Compound 923, 2-Cyclohexyl-N-(5-(3-(7-(3-fluorophenyl)-3H-imidazo[4,5-b]pyridin-2-yl)-1H-pyrazolo[3,4-b]pyridin-5-yl)pyridin-3-yl)acetamide] has an IC50 of over 10000 nM.
In the case of `CC(C)CC(=O)Nc1cncc(-c2cnc3[nH]nc(-c4nc5c(-c6cc(F)cc(OCCN(C)C)c6)ccnc5[nH]4)c3c2)c1` [Compound 1234, N-(5-(3-(7-(3-(2-(Dimethylamino)ethoxy)-5-fluorophenyl)-3H-imidazo[4,5-b]pyridin-2-yl)-1H-pyrazolo[3,4-b]pyridin-5-yl)pyridin-3-yl)-3-methylbutanamide], the IC50 is reported as 1130 nM.
For `Fc1cccc(-c2ccnc3[nH]c(-c4n[nH]c5ncc(-c6cncc(OCc7ccccc7)c6)cc45)nc23)c1` [Compound 922, 5-(5-(Benzyloxy)pyridin-3-yl)-3-(7-(3-fluorophenyl)-3H-imidazo[4,5-b]pyridin-2-yl)-1H-pyrazolo[3,4-b]pyridine], the IC50 was over 10000 nM.
With `FC1(F)CCN(Cc2cncc(-c3cnc4[nH]nc(-c5nc6c(-c7cccs7)ccnc6[nH]5)c4c3)c2)C1` [Compound 309, 5-(5-((3,3-Difluoropyrrolidin-1-yl)methyl)pyridin-3-yl)-3-(7-(thiophen-2-yl)-3H-imidazo[4,5-b]pyridin-2-yl)-1H-pyrazolo[3,4-b]pyridine] the IC50 was 38 nM.
`CC(C)(C)CC(=O)Nc1cncc(-c2cnc3[nH]nc(-c4nc5cccnc5[nH]4)c3c2)c1` [Compound 222, N-(5-(3-(3H-Imidazo[4,5-b]pyridin-2-yl)-1H-pyrazolo[3,4-b]pyridin-5-yl)pyridin-3-yl)-3,3-dimethylbutanamide] showed an IC50 of 192 nM.
`Fc1cccc(-c2ccnc3[nH]c(-c4n[nH]c5ncc(-c6cncc(OC7CCCCC7)c6)cc45)nc23)c1` [Compound 915, 5-(5-(Cyclohexyloxy)pyridin-3-yl)-3-(7-(3-fluorophenyl)-3H-imidazo[4,5-b]pyridin-2-yl)-1H-pyrazolo[3,4-b]pyridine] was tested, and the IC50 was over 10000 nM.
With `CC(C)(C)CC(=O)Nc1cncc(-c2cnc3[nH]nc(-c4nc5c(-c6ccccc6F)ccnc5[nH]4)c3c2)c1` [Compound 57, N-(5-(3-(7-(2-Fluorophenyl)-3H-imidazo[4,5-b]pyridin-2-yl)-1H-pyrazolo[3,4-b]pyridin-5-yl)pyridin-3-yl)-3,3-dimethylbutanamide] the IC50 was 118 nM.
`Fc1cccc(-c2ccnc3[nH]c(-c4n[nH]c5ncc(-c6cncc(OCCN7CCCC7)c6)cc45)nc23)c1` [Compound 918, 3-(7-(3-Fluorophenyl)-3H-imidazo[4,5-b]pyridin-2-yl)-5-(5-(2-(pyrrolidin-1-yl)ethoxy)pyridin-3-yl)-1H-pyrazolo[3,4-b]pyridine] gave an IC50 of over 10000 nM.
With `Fc1ccc(-c2ccnc3[nH]c(-c4n[nH]c5ncc(-c6cncnc6)cc45)nc23)cc1` [Compound 44, 3-(7-(4-Fluorophenyl)-3H-imidazo[4,5-b]pyridin-2-yl)-5-(pyrimidin-5-yl)-1H-pyrazolo[3,4-b]pyridine] the IC50 was 377 nM.
With `CC(C)CC(=O)Nc1cncc(-c2cnc3[nH]nc(-c4nc5c(-c6cc(F)cc(OCCN7CCCC7)c6)ccnc5[nH]4)c3c2)c1` [Compound 1278, N-(5-(3-(7-(3-Fluoro-5-(2-(pyrrolidin-1-yl)ethoxy)phenyl)-3H-imidazo[4,5-b]pyridin-2-yl)-1H-pyrazolo[3,4-b]pyridin-5-yl)pyridin-3-yl)-3-methylbutanamide] the IC50 was 890 nM.
`CN1CCN(c2ccnc3[nH]c(-c4n[nH]c5ncc(-c6cncnc6)cc45)nc23)CC1` [Compound 209, 3-(7-(4-Methylpiperazin-1-yl)-3H-imidazo[4,5-b]pyridin-2-yl)-5-(pyrimidin-5-yl)-1H-pyrazolo[3,4-b]pyridine] showed an IC50 of over 10000 nM.
Work on `Fc1cccc(-c2ccnc3[nH]c(-c4n[nH]c5ncc(-c6cncc(CN7CCC(F)(F)C7)c6)cc45)nc23)c1` [Compound 21, 5-(5-((3,3-Difluoropyrrolidin-1-yl)methyl)pyridin-3-yl)-3-(7-(3-fluorophenyl)-3H-imidazo[4,5-b]pyridin-2-yl)-1H-pyrazolo[3,4-b]pyridine] yielded an IC50 of 35.8 nM.
`CCCCC(=O)Nc1cncc(-c2cnc3[nH]nc(-c4nc5c(-c6ccoc6)ccnc5[nH]4)c3c2)c1` [Compound 276, N-(5-(3-(7-(Furan-3-yl)-3H-imidazo[4,5-b]pyridin-2-yl)-1H-pyrazolo [3,4-b]pyridin-5-yl)pyridin-3-yl)pentanamide] showed an IC50 of 8.1 nM.
For `CN(C)c1cncc(-c2cnc3[nH]nc(-c4nc5c(-c6cccc(F)c6)ccnc5[nH]4)c3c2)c1` [Compound 5, 5-(3-(7-(3-Fluorophenyl)-3H-imidazo[4,5-b]pyridin-2-yl)-1H-pyrazolo [3,4-b]pyridin-5-yl)-N,N-dimethylpyridin-3-amine], the IC50 was 172 nM.
Work on `COc1cc(F)cc(-c2ccnc3[nH]c(-c4n[nH]c5ncc(-c6cncc(NC(=O)CC(C)C)c6)cc45)nc23)c1` [Compound 1366, N-(5-(3-(7-(3-Fluoro-5-methoxyphenyl)-3H-imidazo[4,5-b]pyridin-2-yl)-1H-pyrazolo[3,4-b]pyridin-5-yl)pyridin-3-yl)-3-methylbutanamide] yielded an IC50 of 125 nM.
With `CC(C)CC(=O)Nc1cncc(-c2cnc3[nH]nc(-c4nc5c(-c6cc(O)cc(F)c6)ccnc5[nH]4)c3c2)c1` [Compound 1322, N-(5-(3-(7-(3-Fluoro-5-hydroxyphenyl)-3H-imidazo[4,5-b]pyridin-2-yl)-1H-pyrazolo[3,4-b]pyridin-5-yl)pyridin-3-yl)-3-methylbutanamide] the IC50 was 395 nM.
`CN(C)c1cncc(-c2cnc3[nH]nc(-c4nc5c(-c6cccs6)ccnc5[nH]4)c3c2)c1` [Compound 291, N,N-Dimethyl-5-(3-(7-(thiophen-2-yl)-3H-imidazo[4,5-b]pyridin-2-yl)-1H-pyrazolo[3,4-b]pyridin-5-yl)pyridin-3-amine] showed an IC50 of 43.8 nM.
`O=C(CC1CCNCC1)Nc1cncc(-c2cnc3[nH]nc(-c4nc5c(-c6cccc(F)c6)ccnc5[nH]4)c3c2)c1` [Compound 917, N-(5-(3-(7-(3-Fluorophenyl)-3H-imidazo[4,5-b]pyridin-2-yl)-1H-pyrazolo [3,4-b]pyridin-5-yl)pyridin-3-yl)-2-(piperidin-4-yl)acetamide] showed an IC50 of over 10000 nM.
